Bounds are passed on as bounds.

A word on the EC50: it is the concentration giving half of the maximal effect.

The assay is described as follows: Inhibition of NS5A in HCV genotype 1b infected in human HuH7 replicon cells assessed as reduction in subgenomic viral RNA replication treated for 2 days followed by compound washout and subsequent compound dosing measured after 1 day by SEAP reporter gene assay.
Turning to `COC(=O)N[C@H](C(=O)N1CCC[C@H]1c1ncc(-c2ccc(-c3ccc(-c4cnc([C@@H]5CCCN5C(=O)[C@@H](NC(=O)OC)c5ccccc5)s4)cc3)cc2)s1)c1ccccc1`, the EC50 was 41 nM.
The value for `O=C(N[C@@H](C(=O)N1CCC[C@H]1c1ncc(-c2ccc(-c3ccc(-c4cnc([C@@H]5CCCN5C(=O)[C@H](NC(=O)C5CC5)C5CCCCC5)s4)cc3)cc2)s1)C1CCCCC1)C1CC1` was > 50000 nM.
The value for `O=C(CCN1CCOCC1)N[C@H](C(=O)N1CCC[C@H]1c1ncc(-c2ccc(-c3ccc(-c4cnc([C@@H]5CCCN5C(=O)[C@H](NC(=O)CCN5CCOCC5)c5ccccc5)s4)cc3)cc2)s1)c1ccccc1` was 2.6 nM.
As for `O=C(N[C@@H](C(=O)N1CCC[C@H]1c1ncc(-c2ccc(-c3ccc(-c4cnc([C@@H]5CCCN5C(=O)[C@H](NC(=O)c5cccs5)c5ccccc5)s4)cc3)cc2)s1)c1ccccc1)c1cccs1`, the figure is 1.4 nM; as for `O=C(N[C@@H](C(=O)N1CCC[C@H]1c1ncc(-c2ccc(-c3ccc(-c4cnc([C@@H]5CCCN5C(=O)[C@H](NC(=O)C5CCC5)c5ccccc5)s4)cc3)cc2)s1)c1ccccc1)C1CCC1`, 0.007 nM.
Turning to `O=C(N[C@H](C(=O)N1CCC[C@H]1c1ncc(-c2ccc(-c3ccc(-c4cnc([C@@H]5CCCN5C(=O)[C@H](NC(=O)N5CCOCC5)c5ccccc5)s4)cc3)cc2)s1)c1ccccc1)N1CCOCC1`, the concentration giving a half-maximal response (EC50) worked out at 1.1 nM.
As for `O=C(N[C@H](C(=O)N1CCC[C@H]1c1ncc(-c2ccc(-c3ccc(-c4cnc([C@@H]5CCCN5C(=O)[C@H](NC(=O)C5CCCCC5)c5ccccc5)s4)cc3)cc2)s1)c1ccccc1)C1CCCCC1`, the figure is 40 nM; as for `CN1CCN(CCC(=O)N[C@@H](C(=O)N2CCC[C@H]2c2ncc(-c3ccc(-c4ccc(-c5cnc([C@@H]6CCCN6C(=O)[C@H](NC(=O)CCN6CCN(C)CC6)c6ccccc6)s5)cc4)cc3)s2)c2ccccc2)CC1`, 7.2 nM; as for `COC(=O)N[C@H](C(=O)N1CCC[C@H]1c1ncc(-c2ccc(-c3ccc(-c4cnc([C@@H]5CCCN5C(=O)[C@H](NC(=O)OC)c5ccccc5)s4)cc3)cc2)s1)c1ccccc1`, 108 nM.
As for `COC(=O)N[C@@H](C(=O)N1CCC[C@H]1c1ncc(-c2ccc(-c3ccc(-c4cnc([C@@H]5CCCN5C(=O)[C@H](NC(=O)OC)c5ccccc5)s4)cc3)cc2)s1)c1ccccc1`, the figure is 0.19 nM; as for `CCOC(=O)N[C@H](C(=O)N1CCC[C@H]1c1ncc(-c2ccc(-c3ccc(-c4cnc([C@@H]5CCCN5C(=O)[C@@H](NC(=O)OCC)C(C)C)s4)cc3)cc2)s1)C(C)C`, 327 nM; as for `CC(C)[C@H](NC(=O)Oc1ccccc1)C(=O)N1CCC[C@H]1c1ncc(-c2ccc(-c3ccc(-c4cnc([C@@H]5CCCN5C(=O)[C@@H](NC(=O)Oc5ccccc5)C(C)C)s4)cc3)cc2)s1`, 2820 nM.
The value for `COC(=O)N[C@@H](C)C(=O)N1CCC[C@H]1c1ncc(-c2ccc(-c3ccc(-c4cnc([C@@H]5CCCN5C(=O)[C@H](C)NC(=O)OC)s4)cc3)cc2)s1` was 159 nM; that for `CCC[C@H](NC(=O)OC)C(=O)N1CCC[C@H]1c1ncc(-c2ccc(-c3ccc(-c4cnc([C@@H]5CCCN5C(=O)[C@H](CCC)NC(=O)OC)s4)cc3)cc2)s1` was 123 nM.
Consider `COC(=O)N[C@@H](CC(C)C)C(=O)N1CCC[C@H]1c1ncc(-c2ccc(-c3ccc(-c4cnc([C@@H]5CCCN5C(=O)[C@H](CC(C)C)NC(=O)OC)s4)cc3)cc2)s1`, for which the half-maximal effective concentration (EC50) was determined as 179 nM.
The value for `CC(C)C[C@@H](NC(=O)C1CC1)C(=O)N1CCC[C@H]1c1ncc(-c2ccc(-c3ccc(-c4cnc([C@@H]5CCCN5C(=O)[C@@H](CC(C)C)NC(=O)C5CC5)s4)cc3)cc2)s1` was 27 nM; that for `CC(C)[C@@H](NC(=O)C1CC1)C(=O)N1CCC[C@H]1c1ncc(-c2ccc(-c3ccc(-c4cnc([C@@H]5CCCN5C(=O)[C@H](NC(=O)C5CC5)C(C)C)s4)cc3)cc2)s1` was 732 nM; that for `CCC[C@@H](NC(=O)C1CC1)C(=O)N1CCC[C@H]1c1ncc(-c2ccc(-c3ccc(-c4cnc([C@@H]5CCCN5C(=O)[C@@H](CCC)NC(=O)C5CC5)s4)cc3)cc2)s1` was 92 nM.
For the molecule `CC[C@@H](NC(=O)C1CC1)C(=O)N1CCC[C@H]1c1ncc(-c2ccc(-c3ccc(-c4cnc([C@@H]5CCCN5C(=O)[C@@H](CC)NC(=O)C5CC5)s4)cc3)cc2)s1`, the concentration giving a half-maximal response (EC50) was 433 nM.
As to `O=C(CCN1CCCCC1)N[C@H](C(=O)N1CCC[C@H]1c1ncc(-c2ccc(-c3ccc(-c4cnc([C@@H]5CCCN5C(=O)[C@H](NC(=O)CCN5CCCCC5)c5ccccc5)s4)cc3)cc2)s1)c1ccccc1`, the half-maximal effective concentration (EC50) turned out to be 16 nM.
The value for `O=C(CCN1CCCC1)N[C@H](C(=O)N1CCC[C@H]1c1ncc(-c2ccc(-c3ccc(-c4cnc([C@@H]5CCCN5C(=O)[C@H](NC(=O)CCN5CCCC5)c5ccccc5)s4)cc3)cc2)s1)c1ccccc1` was 23 nM; that for `O=C(CCn1cccc1)N[C@H](C(=O)N1CCC[C@H]1c1ncc(-c2ccc(-c3ccc(-c4cnc([C@@H]5CCCN5C(=O)[C@H](NC(=O)CCn5cccc5)c5ccccc5)s4)cc3)cc2)s1)c1ccccc1` was 0.23 nM; that for `O=C(N[C@H](C(=O)N1CCC[C@H]1c1ncc(-c2ccc(-c3ccc(-c4cnc([C@@H]5CCCN5C(=O)[C@H](NC(=O)N5CCCCC5)c5ccccc5)s4)cc3)cc2)s1)c1ccccc1)N1CCCCC1` was 1.9 nM.
The value for `O=C(N[C@H](C(=O)N1CCC[C@H]1c1ncc(-c2ccc(-c3ccc(-c4cnc([C@@H]5CCCN5C(=O)[C@H](NC(=O)N5CCCC5)c5ccccc5)s4)cc3)cc2)s1)c1ccccc1)N1CCCC1` was 1.3 nM; that for `O=C(N[C@H](C(=O)N1CCC[C@H]1c1ncc(-c2ccc(-c3ccc(-c4cnc([C@@H]5CCCN5C(=O)[C@H](NC(=O)c5cccs5)c5ccccc5)s4)cc3)cc2)s1)c1ccccc1)c1cccs1` was 110 nM.
The value for `O=C(N[C@H](C(=O)N1CCC[C@H]1c1ncc(-c2ccc(-c3ccc(-c4cnc([C@@H]5CCCN5C(=O)[C@H](NC(=O)c5ccoc5)c5ccccc5)s4)cc3)cc2)s1)c1ccccc1)c1ccoc1` was 0.63 nM; that for `O=C(N[C@H](C(=O)N1CCC[C@H]1c1ncc(-c2ccc(-c3ccc(-c4cnc([C@@H]5CCCN5C(=O)[C@H](NC(=O)c5ccco5)c5ccccc5)s4)cc3)cc2)s1)c1ccccc1)c1ccco1` was 1.7 nM; that for `O=C(N[C@H](C(=O)N1CCC[C@H]1c1ncc(-c2ccc(-c3ccc(-c4cnc([C@@H]5CCCN5C(=O)[C@H](NC(=O)c5cccnc5)c5ccccc5)s4)cc3)cc2)s1)c1ccccc1)c1cccnc1` was 2.1 nM.
Consider `O=C(N[C@H](C(=O)N1CCC[C@H]1c1ncc(-c2ccc(-c3ccc(-c4cnc([C@@H]5CCCN5C(=O)[C@H](NC(=O)c5ccccc5)c5ccccc5)s4)cc3)cc2)s1)c1ccccc1)c1ccccc1`, for which the 50% effective concentration (EC50) amounted to 272 nM.
As for `O=C(N[C@H](C(=O)N1CCC[C@H]1c1ncc(-c2ccc(-c3ccc(-c4cnc([C@@H]5CCCN5C(=O)[C@H](NC(=O)C5CCC5)c5ccccc5)s4)cc3)cc2)s1)c1ccccc1)C1CCC1`, the figure is 0.45 nM.
The value for `O=C(N[C@H](C(=O)N1CCC[C@H]1c1ncc(-c2ccc(-c3ccc(-c4cnc([C@@H]5CCCN5C(=O)[C@H](NC(=O)C5CC5)c5ccccc5)s4)cc3)cc2)s1)c1ccccc1)C1CC1` was 1.5 nM.
The value for `CC(C)(C)C(=O)N[C@H](C(=O)N1CCC[C@H]1c1ncc(-c2ccc(-c3ccc(-c4cnc([C@@H]5CCCN5C(=O)[C@H](NC(=O)C(C)(C)C)c5ccccc5)s4)cc3)cc2)s1)c1ccccc1` was 52 nM.
On to `CCCCC(=O)N[C@H](C(=O)N1CCC[C@H]1c1ncc(-c2ccc(-c3ccc(-c4cnc([C@@H]5CCCN5C(=O)[C@H](NC(=O)CCCC)c5ccccc5)s4)cc3)cc2)s1)c1ccccc1`, for which the concentration for a half-maximal effect (EC50) came out at 7.6 nM.
In the case of `CCCC(=O)N[C@H](C(=O)N1CCC[C@H]1c1ncc(-c2ccc(-c3ccc(-c4cnc([C@@H]5CCCN5C(=O)[C@H](NC(=O)CCC)c5ccccc5)s4)cc3)cc2)s1)c1ccccc1`, the 50% effective concentration (EC50) was 0.77 nM.
Take `CCC(=O)N[C@H](C(=O)N1CCC[C@H]1c1ncc(-c2ccc(-c3ccc(-c4cnc([C@@H]5CCCN5C(=O)[C@H](NC(=O)CC)c5ccccc5)s4)cc3)cc2)s1)c1ccccc1`: the 50% effective concentration (EC50) worked out at 0.85 nM.
Turning to `CCN(CC)CCC(=O)N[C@@H](C(=O)N1CCC[C@H]1c1ncc(-c2ccc(-c3ccc(-c4cnc([C@@H]5CCCN5C(=O)[C@H](NC(=O)CCN(CC)CC)c5ccccc5)s4)cc3)cc2)s1)c1ccccc1`, the EC50 worked out at 1 nM.
As for `CN(C)CCC(=O)N[C@@H](C(=O)N1CCC[C@H]1c1ncc(-c2ccc(-c3ccc(-c4cnc([C@@H]5CCCN5C(=O)[C@H](NC(=O)CCN(C)C)c5ccccc5)s4)cc3)cc2)s1)c1ccccc1`, the figure is 2.5 nM.
The value for `O=C(N[C@@H](C(=O)N1CCC[C@H]1c1ncc(-c2ccc(-c3ccc(-c4cnc([C@@H]5CCCN5C(=O)[C@H](NC(=O)N5CCCCC5)c5ccccc5)s4)cc3)cc2)s1)c1ccccc1)N1CCCCC1` was 0.016 nM; that for `O=C(N[C@@H](C(=O)N1CCC[C@H]1c1ncc(-c2ccc(-c3ccc(-c4cnc([C@@H]5CCCN5C(=O)[C@H](NC(=O)N5CCCC5)c5ccccc5)s4)cc3)cc2)s1)c1ccccc1)N1CCCC1` was 0.035 nM.
The value for `O=C(N[C@@H](C(=O)N1CCC[C@H]1c1ncc(-c2ccc(-c3ccc(-c4cnc([C@@H]5CCCN5C(=O)[C@H](NC(=O)c5ccsc5)c5ccccc5)s4)cc3)cc2)s1)c1ccccc1)c1ccsc1` was 0.53 nM; that for `O=C(N[C@@H](C(=O)N1CCC[C@H]1c1ncc(-c2ccc(-c3ccc(-c4cnc([C@@H]5CCCN5C(=O)[C@H](NC(=O)c5ccco5)c5ccccc5)s4)cc3)cc2)s1)c1ccccc1)c1ccco1` was 0.07 nM.
Turning to `O=C(N[C@@H](C(=O)N1CCC[C@H]1c1ncc(-c2ccc(-c3ccc(-c4cnc([C@@H]5CCCN5C(=O)[C@H](NC(=O)c5ccccn5)c5ccccc5)s4)cc3)cc2)s1)c1ccccc1)c1ccccn1`, the EC50 is 46 nM.
As for `O=C(N[C@@H](C(=O)N1CCC[C@H]1c1ncc(-c2ccc(-c3ccc(-c4cnc([C@@H]5CCCN5C(=O)[C@H](NC(=O)c5ccccc5)c5ccccc5)s4)cc3)cc2)s1)c1ccccc1)c1ccccc1`, the figure is 21 nM; as for `O=C(N[C@@H](C(=O)N1CCC[C@H]1c1ncc(-c2ccc(-c3ccc(-c4cnc([C@@H]5CCCN5C(=O)[C@H](NC(=O)C5CCCCC5)c5ccccc5)s4)cc3)cc2)s1)c1ccccc1)C1CCCCC1`, 0.25 nM.

These data come from BindingDB's records for doi:10.1016/j.ejmech.2019.02.016 (National Health Research Institutes, 2019).
